Test: Toxicokinetic study with HFPO alcohols: oral absorption and serum elimination (total fluorine in serum)
Design: species or system Male Sprague-Dawley rats
Settings: rat, in vivo, 30 mg/kg
Description: The objective of this study was to assess the oral absorption and serum elimination half-life of six hexafluoropropylene oxide (HFPO)-alcohol oligomers (CF3CF2CF2O(CF(CF3)CF2O)xCF(CF3)C(O)N(H)CH2CH2OH), or mixtures thereof, in rats. Male Sprague-Dawley rats (N=4 to 6 rats per dose group) received a single 30 mg/kg dose of the various HFPO alcohol oligomers in propylene glycol by oral gavage at a volume of 5 ml/kg. Necropsies were performed on day one and day four post dose.
Serum samples obtained at necropsy were analyzed for total fluorine based on published methods (1) using an Antek 9000F Fluoride Analysis System. The method was based on oxy-pyrohydrolysis at 1050° C., whereby the C—F bond is broken and the resulting product, hydrogen fluoride (HF), is trapped in a buffer solution and measured with the fluoride ion electrode. The total fluorine levels obtained by this method reflect the total organic fluorine in the serum samples and are reported in Table 2.

Substance | Amount of Total F ppm (SD) in serum, Day 1 Post-Dose | Amount of Total F ppm (SD) in serum, Day 4 Post-Dose | apparent half-life serum fluorine levels
CF3CF2CF2O(CF(CF3)CF2O)xCF(CF3)C(O)N(H)CH2CH2OH [Example 2] | 0.15 (0.00) ppm | 0.15 (0.00) ppm | 
CF3CF2CF2O(CF(CF3)CF2O)xCF(CF3)C(O)N(H)CH2CH2OH [Example 3] | 0.15 (0.00) ppm | 0.15 (0.00) ppm | 
CF3CF2CF2O(CF(CF3)CF2O)xCF(CF3)C(O)N(H)CH2CH2OH [Example C1] | 7.55 (1.34) ppm | 3.90 (0.00) ppm | approximately four

Reference: patent US6923921B2, “Fluorinated polyether compositions” (3M Innovative Properties Company, priority 2002, dated 2005)
